Source: patent US20080021098A1, “Antifungal Compositions” (GIVAUDAN SA, priority 2004, published 2008)

System: Cladosporium sphaerospermum IK-65 on cotton fabrics / Cladosporium sphaerospermum MTL on plaster
Experiment: Minimal headspace level required for antifungal activity (olfactometer, constant fragrance vapour)
Type: cell-based
Settings: test phase of 7 days; for Effect on fungal growth: at the headspace level of the same line; for Headspace level required to inhibit fungal growth: constant vapour concentration
Experimental: In order to determine the effective level of the anti-mould fragrance compounds needed for anti-mould vapour phase activity, an olfactometer is constructed that allows delivery to the fungal growth substrate of a constant concentration of fragrance vapour. A stream of nitrogen is saturated with the fragrance component, and the fragrance-saturated gas is then diluted with water saturated air at different ratios. This mixture is then blown continuously through enclosed acryl-glass boxes and the headspace is measured by sampling 1 ml gas sample with subsequent analysis in the gas chromatograph. Once a steady state in the acryl-glass box is reached (usually within 1-3 days), a fungal inoculum on a relevant substrate is added to the box, and fungal growth during a test phase of 7 days is evaluated.
The following relevant substrate—inoculum combinations were used: • (a) White pieces of cotton fabrics were soaked with a solution of potato dextrose broth diluted to a final concentration of 5% containing spores from the fungal test strain Cladosporium sphaerospermum IK-65 diluted to a final density corresponding to an optical density at 600 nm of 0.01. The test strain IK 65 was isolated from moist fabrics having fungal off odors, and it is a typical strain growing on fabrics as substrate. • (b) White plaster used for fixing ceramic tiles in bathrooms was spread homogenously on the back of 35 mm Petri dishes. On each Petri dish, 160 μl of a fungal inoculum was evenly spread. It contained potato dextrose broth diluted to a final concentration of 50% and spores from the fungal test strain Cladosporium sphaerospermum MTL diluted to a final density corresponding to an optical density at 600 nm of 0.004. The test strain MTL was isolated from a bathroom with vigorous mould growth on the plaster between tiles.

Structure (SMILES) | Effect on fungal growth | Headspace level required to inhibit fungal growth [µg/L]
CC1=CC(C)C(C=O)CC1 (stereo not shown) [1-carboxaldehyde-2,4-dimethyl-cyclohex-3-en] | over 90% inhibition | 21
COc1ccc(CC(C)C=O)cc1 (stereo not shown) [3-(4-methoxyphenyl)-2-methyl-propanal] | complete inhibition | 1.9
CC1=CCC(C(C)CCO)CC1 (stereo not shown) [3-(4-methyl-3-cyclohexenyl)-butanol] | 80% inhibition | 4.5
COc1ccc(C=O)cc1 [4-methoxy-benzaldehyde] | over 90% inhibition | 7.5
CC1(C)CCCC2=C1CC(C=O)CC2 (stereo not shown) [8,8-Dimethyl-1,2,3,4,5,6,7,8-octahydro-naphthalene-2-carbaldehyde] | complete inhibition | 4.9
